#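 1) Cells in 96-well plates. 2) Compound, 48 h, 5 concentrations. 3) Linear interpolation between surrounding doses. 4) Unreached endpoint = highest concentration. GI50 is the concentration that inhibits growth by half.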 Calls of active or inactive are those of the source. No stated cut-off is given here; in the data, active = GI50 up to about 1.1 µM and inactive = higher.
# Assays:
# Test in all cases: inhibition of tumour cell growth, NCI panel, 48 h
# [1] = tested on: 786-0
# [2] = tested on: A498
# [3] = tested on: A549
# [4] = tested on: ACHN
# [5] = tested on: BT-549
# [6] = tested on: CAKI-1
# [7] = tested on: CCRF-CEM
# [8] = tested on: COLO 205
# [9] = tested on: DU-145
# [10] = tested on: EKVX
# [11] = tested on: HCC 2998
# [12] = tested on: HCT-116
# [13] = tested on: HCT-15
# [14] = tested on: HL-60
# [15] = tested on: HOP-62
# [16] = tested on: HOP-92
# [17] = tested on: HT-29
# [18] = tested on: Hs-578T
# [19] = tested on: IGROV-1
# [20] = tested on: K562
# [21] = tested on: KM12
# [22] = tested on: LOX IMVI
# [23] = tested on: M14
# [24] = tested on: MCF7
# [25] = tested on: MDA-MB-231
# [26] = tested on: MDA-MB-435
# [27] = tested on: MDA-N
# [28] = tested on: MOLT-4
# [29] = tested on: Malme-3M
# [30] = tested on: NCI-H226
# [31] = tested on: NCI-H23
# [32] = tested on: NCI-H460
# [33] = tested on: NCI-H522
# [34] = tested on: NCI/ADR-RES
# [35] = tested on: OVCAR-3
# [36] = tested on: OVCAR-4
# [37] = tested on: OVCAR-5
# [38] = tested on: OVCAR-8
# [39] = tested on: PC-3
# [40] = tested on: RPMI-8226
# [41] = tested on: RXF 393
# [42] = tested on: SF-268
# [43] = tested on: SF-295
# [44] = tested on: SF-539
# [45] = tested on: SK-MEL-28
# [46] = tested on: SK-MEL-2
# [47] = tested on: SK-MEL-5
# [48] = tested on: SK-OV-3
# [49] = tested on: SN12C
# [50] = tested on: SNB-19
# [51] = tested on: SNB-75
# [52] = tested on: SR
# [53] = tested on: SW-620
# [54] = tested on: T47D
# [55] = tested on: TK-10
# [56] = tested on: U-251
# [57] = tested on: UACC-257
# [58] = tested on: UACC-62
# [59] = tested on: UO-31
smiles,measurement,setting,value
CCO/C=N/C1=C(C#N)C(c2ccc(Cl)cc2)c2c(-c3ccccc3)nn(-c3ccccc3)c2O1 (centres undefined),GI50,[1],10.2 µM (inactive)
same,GI50,[2],13.4 µM (inactive)
same,GI50,[3],5.73 µM (inactive)
same,GI50,[4],8.51 µM (inactive)
same,GI50,[5],14.1 µM (inactive)
same,GI50,[6],15.7 µM (inactive)
same,GI50,[7],5.73 µM (inactive)
same,GI50,[8],5.27 µM (inactive)
same,GI50,[9],16 µM (inactive)
same,GI50,[10],13.9 µM (inactive)
same,GI50,[11],7.16 µM (inactive)
same,GI50,[12],7.5 µM (inactive)
same,GI50,[13],5.43 µM
same,GI50,[14],5.66 µM (inactive)
same,GI50,[15],19.1 µM (inactive)
same,GI50,[16],5.42 µM (inactive)
same,GI50,[17],7.53 µM (inactive)
same,GI50,[18],6.12 µM (inactive)
same,GI50,[19],8.93 µM (inactive)
same,GI50,[20],7.78 µM (inactive)
same,GI50,[21],5.09 µM (inactive)
same,GI50,[22],9.62 µM (inactive)
same,GI50,[23],4.58 µM (inactive)
same,GI50,[24],3.81 µM (inactive)
same,GI50,[25],21.6 µM (inactive)
same,GI50,[26],12.4 µM (inactive)
same,GI50,[27],14.7 µM (inactive)
same,GI50,[28],6.93 µM (inactive)
same,GI50,[29],12.3 µM (inactive)
same,GI50,[30],15.7 µM (inactive)
same,GI50,[31],5.15 µM (inactive)
same,GI50,[32],7.69 µM (inactive)
same,GI50,[33],3.77 µM (inactive)
same,GI50,[34],9.86 µM (inactive)
same,GI50,[35],3.72 µM (inactive)
same,GI50,[36],11.4 µM (inactive)
same,GI50,[37],23.7 µM (inactive)
same,GI50,[38],14 µM (inactive)
same,GI50,[39],4.28 µM (inactive)
same,GI50,[40],6.53 µM (inactive)
same,GI50,[41],7.03 µM (inactive)
same,GI50,[42],7.87 µM (inactive)
same,GI50,[43],7.43 µM (inactive)
same,GI50,[44],6.14 µM (inactive)
same,GI50,[45],11.7 µM (inactive)
same,GI50,[46],11.7 µM (inactive)
same,GI50,[47],> 10 µM (inactive)
same,GI50,[48],14.3 µM (inactive)
same,GI50,[49],12.2 µM (inactive)
same,GI50,[50],12.7 µM (inactive)
same,GI50,[51],6.81 µM (inactive)
same,GI50,[52],5.5 µM (inactive)
same,GI50,[53],12.9 µM (inactive)
same,GI50,[54],> 61.9 µM (inactive)
same,GI50,[55],7.19 µM (inactive)
same,GI50,[56],8.55 µM (inactive)
same,GI50,[57],11.8 µM (inactive)
same,GI50,[58],12.2 µM (inactive)
same,GI50,[59],11.6 µM (inactive)
